From patent publication US12662707B2, “MYC amplification drives resistance to pan-RAS inhibitors in pancreatic cancer” (The Trustees of Columbia University in the City of New York, priority 2024, dated 2026)
pEC50: −log10 of the molar value.

Tests used:
[1] = system: human DUSP6 expression in Capan-1 CDX tumors; test: PK/PD in Capan-1 xenograft tumors (DUSP6 qRT-PCR); format: in vivo, mouse
Description: Tumor-bearing animals were randomized and assigned into groups (n=3-10/group). Vehicle or RMC-7977 was administered via oral gavage daily at 10 mg/kg and animals were treated for 21-28 days. Studies were terminated early if tumor burden reached humane endpoint. Body weights were collected twice a week during the study. Means±s.e.m were plotted in the waterfall plots. For the single-dose pharmacokinetic/pharmacodynamic (PK/PD) study, mice were randomized and assigned into groups (n=3-6/dose/timepoint). A single dose of RMC-7977 was administered orally at 10 mg/kg, 25 mg/kg and 50 mg/kg. […]
Whole blood, tumor, colon and skin tissue concentrations of RMC-7977 were determined using liquid chromatography-tandem mass spectrometry (LC-MS/MS) methods. […] After thorough mixing and centrifugation, the supernatant was directly analyzed on a Sciex 6500+ triple quadrupole mass spectrometer equipped with an ACQUITY or Shimadzu UPLC system. […] RMC-7977 and IS (verapamil or terfenadine) were detected by positive electrospray ionization using multiple reaction monitoring (RMC-7977: m/z 865.4/706.4 or m/z 865.3/833.5; verapamil: m/z 455.2/164.9; terfenadine: m/z 472.3/436.4). The lower limit of quantification was 0.5 ng/mL or 2.0 ng/mL for blood, tumor, and other tissue. […]

[2] = Pharmacokinetics in Capan-1 xenograft model (tumor and blood); format: in vivo; conditions: BALB/c (immune-deficient), mouse, tumor vs whole blood, oral; Capan-1 xenograft tumors; read-out: overall exposure (AUC0-48) in tumors compared to blood
Description: Studies were terminated early if tumor burden reached humane endpoint. Body weights were collected twice a week during the study. Means±s.e.m were plotted in the waterfall plots. For the single-dose pharmacokinetic/pharmacodynamic (PK/PD) study, mice were randomized and assigned into groups (n=3-6/dose/timepoint). […] Sakura, 4583) solution or snap-frozen in LN2 for further analysis. Whole blood was transferred into K2EDTA Microtainer tubes (BD, 365974), incubated for 5 minutes and snap-frozen in LN2. Whole blood, tumor, colon and skin tissue concentrations of RMC-7977 were determined using liquid chromatography-tandem mass spectrometry (LC-MS/MS) methods. […] After thorough mixing and centrifugation, the supernatant was directly analyzed on a Sciex 6500+ triple quadrupole mass spectrometer equipped with an ACQUITY or Shimadzu UPLC system. An ACQUITY UPLC BEH C18 or C4 […] (2.1×50 mm) column was used with gradient elution for compound separation. RMC-7977 and IS (verapamil or terfenadine) were detected by positive electrospray ionization using multiple reaction monitoring (RMC-7977: m/z 865.4/706.4 or m/z 865.3/833.5; verapamil: m/z 455.2/164.9; terfenadine: m/z 472.3/436.4). […] BA analysis on blood and tissue samples from xenograft models was run at Wuxi AppTec. BA analysis on blood and tissue samples from allograft models and GEMM was run at Revolution Medicines.

## CCn1c(-c2cc(N3CCN(C4CC4)CC3)cnc2[C@H](C)OC)c2c3cc(ccc31)-c1csc(n1)C[C@H](NC(=O)[C@H]1[C@@H]3COC[C@@H]31)C(=O)N1CCC[C@H](N1)C(=O)OCC(C)(C)C2 [RMC-7977]
[1]; Mus musculus, CAPAN-1, read-out: EC50, inhibition of DUSP6 expression vs RMC-7977 concentration in tumors
  pEC50: 6.85
[1]; single dose 10, 25 or 50 mg/kg
  duration of DUSP6 inhibition post-dose: 24 to 48 h
[2]
  Kp: ~3
